Reference: patent US10729130B2, “Nematicidal compositions and methods of using them” (Eden Research plc, priority 2004, dated 2020)

Tests used:
Assay type in all cases: physicochemical
[1] = Maximal citral and L-carvone loading in Baker's yeast particles (free terpene score); parameters: key to Free Terpene: +: “free terpene” refers to the visible presence of terpene in the centrifuged reaction mixture; −: The absence of free terpene indicates complete absorption of the terpene by the particles; conditions: for Free Terpene: 500 μl 20 mg/ml YP, overnight room temperature
Method: Samples were centrifuged at 14,000×g for 10 minutes and the appearance of free terpene floating on the aqueous layer was scored. The expression “free terpene” refers to the visible presence of terpene in the centrifuged reaction mixture. The absence of free terpene indicates complete absorption of the terpene by the particles. The highest volume of terpene absorbed by the particles, as evidenced by the absence of free terpene, was recorded as the maximal volume of absorbed terpene emulsion.

[2] = Kinetics of terpene loading into various particles at room temperature or 37° C.; parameters: key: +: “free terpene” refers to the visible presence of terpene in the centrifuged reaction mixture; −: The absence of free terpene indicates complete absorption of the terpene by the particles
Method: 1% Tween-80 solution was prepared by sonicating 1 ml 10% Tween-80 in 10 ml water. • Baker's YP was prepared by mixing 5 g of bakers YP in 20 ml 1% Tween-80. • Nutrex™ YGP suspension was prepared by mixing 2 g Nutrex™ YGP in 20 ml 1% Tween-80. • SAF Mannan™ suspension was prepared by mixing 2 g SAF Mannan™ in 20 ml 1% Tween-80.
The reactions were incubated for 1, 3, 6, 9 and 24 hours at room temperature or 37° C. After incubation samples were centrifuged at 14,000×g for 10 minutes and the appearance of free terpene floating on the aqueous layer was scored. The highest volume of terpene absorbed by the particles as evidenced by the absence of free terpene was recorded as the volume of absorbed terpene emulsion. Colour of the encapsulated pellet was scored at 24 hours.

[3] = Maximal terpene loading at high Baker's yeast particle levels (free terpene score); parameters: key to Free Terpene: +: “free terpene” refers to the visible presence of terpene in the centrifuged reaction mixture; −: The absence of free terpene indicates complete absorption of the terpene by the particles; conditions: for Free Terpene: 500 μl 250 mg/ml YP
Method: Samples were centrifuged at 14,000×g for 10 minutes and the appearance of free terpene floating on the aqueous layer was scored. The expression “free terpene” refers to the visible presence of terpene in the centrifuged reaction mixture. The absence of free terpene indicates complete absorption of the terpene by the YP. The highest volume of terpene absorbed by the YP, as evidenced by the absence of free terpene, was recorded as the maximal volume of absorbed terpene emulsion.

[4] = Terpene stability: yellow colored oxidation product (colour of encapsulated terpene pellet); parameters: key to Colour: W = white; Y = yellow; sl = slight; int = intermediate; key to Color: White, W; Yellow, Y; Very Yellow, VY; conditions: for Color: Table 26, scored at 24 hours
Method: Loading reactions were set up as shown in Table 25 and left to incubate overnight. Samples were centrifuged at 14,000×g for 10 minutes and the appearance of free terpene floating on the aqueous layer and the color of the encapsulated terpenes in the pellet was scored. The highest volume of terpene absorbed by particles as evidenced by the absence of free terpene was recorded as the volume of absorbed terpene emulsion. The reactions were incubated for 1, 3, 6, 9 and 24 hours at room temperature or 37° C. After incubation samples were centrifuged at 14,000×g for 10 minutes and the appearance of free terpene floating on the aqueous layer was scored. The highest volume of terpene absorbed by the particles as evidenced by the absence of free terpene was recorded as the volume of absorbed terpene emulsion. Colour of the encapsulated pellet was scored at 24 hours. Increasing volumes of terpene emulsion were mixed with 250 mg/ml Baker's YP or 250 mg/ml SAF Mannan™ overnight at room temperature as shown in Tables 27 and 28. Samples were centrifuged at 14,000×g for 10 minutes and the appearance of free terpene floating on the aqueous layer was scored. The highest volume of terpene emulsion absorbed by Baker's YP or SAF Mannan™ as evidenced by the absence of free terpene was recorded as the volume of absorbed terpene emulsion. Colour of encapsulated terpenes in the pellet was recorded.

Compound: CC(C)=CCCC(C)=CC=O [Citral, citral]
- terpene emulsion absorbed and encapsulated per 10 mg of YP ([1]; Baker's YP 20 mg/ml): at least 5 μl
- Free Terpene ([1]; emulsion 0.5 μl, 10% Tween-80 500 μl): −
- Free Terpene ([1]; emulsion 1.65 μl, 10% Tween-80 500 μl): −
- Free Terpene ([1]; emulsion 5 μl, 10% Tween-80 495 μl): −
- Free Terpene ([1]; emulsion 50 μl, 10% Tween-80 450 μl): +
- Free Terpene ([1]; emulsion 165 μl, 10% Tween-80 335 μl): +
- Free Terpene ([1]; emulsion 500 μl, no Tween-80): +
- Free Terpene (hr) ([2]; 37 ° C., Bakers 250 mg/ml, emulsion 788 μl L-carvone or 525 μl Citral, 1 hr): +
- Free Terpene (hr) ([2]; 37 ° C., Bakers 250 mg/ml, emulsion 788 μl L-carvone or 525 μl Citral, 3 hr): −
- Free Terpene (hr) ([2]; 37 ° C., Bakers 250 mg/ml, emulsion 788 μl L-carvone or 525 μl Citral, 6 hr): −
- Free Terpene (hr) ([2]; 37 ° C., Bakers 250 mg/ml, emulsion 788 μl L-carvone or 525 μl Citral, 9 hr): −
- Free Terpene (hr) ([2]; 37 ° C., Bakers 250 mg/ml, emulsion 788 μl L-carvone or 525 μl Citral, 24 hr): −
- Free Terpene (hr) ([2]; 37 ° C., Nutrex 100 mg/ml, emulsion 1050 μl L-carvone or 788 μl Citral, 1 hr): +
- Free Terpene (hr) ([2]; 37 ° C., Nutrex 100 mg/ml, emulsion 1050 μl L-carvone or 788 μl Citral, 3 hr): −
- Free Terpene (hr) ([2]; 37 ° C., Nutrex 100 mg/ml, emulsion 1050 μl L-carvone or 788 μl Citral, 6 hr): −
- Free Terpene (hr) ([2]; 37 ° C., Nutrex 100 mg/ml, emulsion 1050 μl L-carvone or 788 μl Citral, 9 hr): −
- Free Terpene (hr) ([2]; 37 ° C., Nutrex 100 mg/ml, emulsion 1050 μl L-carvone or 788 μl Citral, 24 hr): −
- Free Terpene (hr) ([2]; 37 ° C., SAF 100 mg/ml, emulsion 1050 μl L-carvone or 788 μl Citral, 1 hr): +
- Free Terpene (hr) ([2]; 37 ° C., SAF 100 mg/ml, emulsion 1050 μl L-carvone or 788 μl Citral, 3 hr): −
- Free Terpene (hr) ([2]; 37 ° C., SAF 100 mg/ml, emulsion 1050 μl L-carvone or 788 μl Citral, 6 hr): −
- Free Terpene (hr) ([2]; 37 ° C., SAF 100 mg/ml, emulsion 1050 μl L-carvone or 788 μl Citral, 9 hr): −
- Free Terpene (hr) ([2]; 37 ° C., SAF 100 mg/ml, emulsion 1050 μl L-carvone or 788 μl Citral, 24 hr): −
- Free Terpene (hr) ([2]; Rt, Bakers 250 mg/ml, emulsion 788 μl L-carvone or 525 μl Citral, 1 hr): +
- Free Terpene (hr) ([2]; Rt, Bakers 250 mg/ml, emulsion 788 μl L-carvone or 525 μl Citral, 3 hr): −
- Free Terpene (hr) ([2]; Rt, Bakers 250 mg/ml, emulsion 788 μl L-carvone or 525 μl Citral, 6 hr): −
- Free Terpene (hr) ([2]; Rt, Bakers 250 mg/ml, emulsion 788 μl L-carvone or 525 μl Citral, 9 hr): −
- Free Terpene (hr) ([2]; Rt, Bakers 250 mg/ml, emulsion 788 μl L-carvone or 525 μl Citral, 24 hr): −
- Free Terpene (hr) ([2]; Rt, Nutrex 100 mg/ml, emulsion 1050 μl L-carvone or 788 μl Citral, 1 hr): +
- Free Terpene (hr) ([2]; Rt, Nutrex 100 mg/ml, emulsion 1050 μl L-carvone or 788 μl Citral, 3 hr): −
- Free Terpene (hr) ([2]; Rt, Nutrex 100 mg/ml, emulsion 1050 μl L-carvone or 788 μl Citral, 6 hr): −
- Free Terpene (hr) ([2]; Rt, Nutrex 100 mg/ml, emulsion 1050 μl L-carvone or 788 μl Citral, 9 hr): −
- Free Terpene (hr) ([2]; Rt, Nutrex 100 mg/ml, emulsion 1050 μl L-carvone or 788 μl Citral, 24 hr): −
- Free Terpene (hr) ([2]; Rt, SAF 100 mg/ml, emulsion 1050 μl L-carvone or 788 μl Citral, 1 hr): +
- Free Terpene (hr) ([2]; Rt, SAF 100 mg/ml, emulsion 1050 μl L-carvone or 788 μl Citral, 3 hr): −
- Free Terpene (hr) ([2]; Rt, SAF 100 mg/ml, emulsion 1050 μl L-carvone or 788 μl Citral, 6 hr): −
- Free Terpene (hr) ([2]; Rt, SAF 100 mg/ml, emulsion 1050 μl L-carvone or 788 μl Citral, 9 hr): −
- Free Terpene (hr) ([2]; Rt, SAF 100 mg/ml, emulsion 1050 μl L-carvone or 788 μl Citral, 24 hr): −
- terpene emulsion absorbed and encapsulated per 125 mg of YP ([3]; Baker's YP 250 mg/ml): at least 75 μl
- Free Terpene ([3]; emulsion 15 μl, 1% Tween-80 485 μl): −
- Free Terpene ([3]; emulsion 37.5 μl, 1% Tween-80 462.5 μl): −
- Free Terpene ([3]; emulsion 75 μl, 1% Tween-80 425 μl): −
- Free Terpene ([3]; emulsion 112.5 μl, 1% Tween-80 387.5 μl): Sl+
- Free Terpene ([3]; emulsion 150 μl, 1% Tween-80 350 μl): +
- Free Terpene ([3]; emulsion 225 μl, 1% Tween-80 275 μl): +
- Free Terpene ([3]; emulsion 450 μl, 1% Tween-80 50 μl): +
- Colour ([4]; Table 25, Baker's 250 mg/ml, overnight): Y
- Colour ([4]; Table 25, Levacan 217 mg/ml, overnight): int
- Colour ([4]; Table 25, Nutrex 163 mg/ml, overnight): Y
- Colour ([4]; Table 25, Nutricepts 99 mg/ml, overnight): Y
- Colour ([4]; Table 25, SAF Mannan 234 mg/ml, overnight): W
- Colour ([4]; Table 25, WGP 121 mg/ml, overnight): int
- Colour ([4]; Table 25, no particle, emulsion in 1% Tween 80, overnight): Y
- Color ([4]; 37 ° C., Bakers 250 mg/ml): VY
- Color ([4]; 37 ° C., Nutrex 100 mg/ml): VY
- Color ([4]; 37 ° C., SAF 100 mg/ml): W
- Color ([4]; Rt, Bakers 250 mg/ml): Y
- Color ([4]; Rt, Nutrex 100 mg/ml): Y
- Color ([4]; Rt, SAF 100 mg/ml): W
- Colour ([4]; Table 27, Baker's YP, emulsion 15 μl): Y
- Colour ([4]; Table 27, Baker's YP, emulsion 37.5 μl): Y
- Colour ([4]; Table 27, Baker's YP, emulsion 75 μl): Y
- Colour ([4]; Table 27, Baker's YP, emulsion 112.5 μl): Y
- Colour ([4]; Table 27, Baker's YP, emulsion 150 μl): Y
- Colour ([4]; Table 27, Baker's YP, emulsion 225 μl): Y
- Colour ([4]; Table 27, Baker's YP, emulsion 450 μl): Y
- Colour ([4]; colour of encapsulated terpene in pellet, SAF Mannan 500 μl, terpene emulsion vol 15): W
- Colour ([4]; colour of encapsulated terpene in pellet, SAF Mannan 500 μl, terpene emulsion vol 37.5): W
- Colour ([4]; colour of encapsulated terpene in pellet, SAF Mannan 500 μl, terpene emulsion vol 75): W
- Colour ([4]; colour of encapsulated terpene in pellet, SAF Mannan 500 μl, terpene emulsion vol 112.5): W
- Colour ([4]; colour of encapsulated terpene in pellet, SAF Mannan 500 μl, terpene emulsion vol 150): W
- Colour ([4]; colour of encapsulated terpene in pellet, SAF Mannan 500 μl, terpene emulsion vol 225): W
- Colour ([4]; colour of encapsulated terpene in pellet, SAF Mannan 500 μl, terpene emulsion vol 450): W
